# Measured values: patent US8933071B2, “Dimethyl fasudil for inducing polyploidization of megakaryocytes and for treating blood and bone marrow diseases and disorders” (Northwestern University, priority 2008, dated 2015)
# What was measured:
# [1] = system: CMK (human megakaryocytic leukemia) cells; assay: High throughput screen for inducers of megakaryocyte polyploidization; type: cell-based; conditions: 10 μM, 72 hours, Hoescht stain, high content imaging
# Protocol: (§1) In collaboration with the Broad Institute, a high throughput screen for small molecules was conducted to identify small molecules that preferentially induce polyploidization or differentiation of megakaryocytes. We screened 10,000 compounds from the Broad's extensive collection of small molecules (including known bioactives, kinase and HDAC inhibitors, and natural products) to identify inducers of megakaryocyte polyploidization. The screen was performed in the following manner: 1) 4,000 CMK (human megakaryocytic leukemia) cells were plated into each well of a 384-well plate, 2) 100 n1 of compounds (yielding a final concentration of 10 μM) were pinned into the wells, 3) plates were incubated at 37° C. for 72 hours, 4) cells were fixed and stained with Hoescht, and 5) plates were imaged using an ImageXpressMICRO high content imager with 20× objective. Nine images per well were collected. 6) Data were analyzed using both MetaXpress software and “Cell Profiler,” software designed at MIT and the Broad Institute. Seventy-two plates containing duplicates of nearly 10,000 small molecules were screened.
# GIME cells = type: cell-based; conditions: 10 μM, 48 hours, DMSO 0.3%
# Protocol: DNA content was then assessed by flow cytometry. Numbers above the bar indicate % of cells ≧8N. b) After 48 hours, GIME cells from a) were stained with anti-CD42 antibodies and the cell surface expression of CD42 was evaluated by flow cytometry.
# as §1
# [2] = system: CD41+ megakaryocyte fraction; assay: Polyploidization of primary human megakaryocytes (CD34+ cells cultured with TPO), CD41+ fraction; type: cell-based; conditions: CD34+ cells cultured with TPO 12 days, compound added after 9 days
# Protocol: (§2) FIG. 4 illustrates that DMF induces polyploidization of normal human megakaryocytes and that its activity is restricted to the CD41+ population. Human CD34+ cells were cultured with TPO for 12 days and then fixed and stained with DAPI. DMSO or DMF were added to the culture after 9 days. DNA content was then assessed by flow cytometry. Numbers above the bar indicate % of cells ≧8N.
# (§3) In collaboration with the Broad Institute, a high throughput screen for small molecules was conducted to identify small molecules that preferentially induce polyploidization or differentiation of megakaryocytes. We screened 10,000 compounds from the Broad's extensive collection of small molecules (including known bioactives, kinase and HDAC inhibitors, and natural products) to identify inducers of megakaryocyte polyploidization. The screen was performed in the following manner: 1) 4,000 CMK (human megakaryocytic leukemia) cells were plated into each well of a 384-well plate, 2) 100 n1 of compounds (yielding a final concentration of 10 μM) were pinned into the wells, 3) plates were incubated at 37° C. for 72 hours, 4) cells were fixed and stained with Hoescht, and 5) plates were imaged using an ImageXpressMICRO high content imager with 20× objective. Nine images per well were collected. 6) Data were analyzed using both MetaXpress software and “Cell Profiler,” software designed at MIT and the Broad Institute. […]
# [3] = system: non-megakaryocytic cells (CD41-negative); assay: Effect on non-megakaryocytic (CD41-negative) cells in human CD34+ culture; type: cell-based; conditions: CD41-negative population
# Protocol: as §2, §3
# [4] = system: erythroid colonies in human MPD bone marrow cultures; type: cell-based; conditions: ET patient bone marrow, 14 days
# Protocol: (§4) Referring to FIG. 5, bone marrow mononuclear cells from a patient with ET were cultured with two doses of DMF for 10 days.
# MPDs Patient Specimens. Mononuclear cells from bone marrow of patients were obtained by informed consent from patients at Northwestern Feinberg School of Medicine. Mononuclear cells were separated from marrow with Ficoll (GE Healthcare life sciences, Piscataway, N.J.) and resuspended in IMDM (Iscove's Modified Dulbecco's Media) media without serum. The cells were stained with 0.4% trypan blue solution for 5 minutes and live cells were counted. Live cells were assayed in CFU-MK (“Colony forming units-megakaryocytes”) and BFU-E (“Burst forming unit-erythroid”) assays as well as in liquid culture.
# BFU-E (Burst forming unit-erythroid) assay. Live ET bone marrow cells were added to MethoCult media (4436, StemCell Technologies, Vancouver, BC, Canada) with recombinant human EPO (erythropoeitin, 3 U/mL), recombinant human SCF (stem cell factor, 50 ng/mL), recombinant human GM-CSF (granulocyte macrophage colony-stimulating factor, 10 ng/mL) and recombinant human IL-3 (10 ng/mL). […] Cells were plated in duplicate in 35 mm culture dishes according the manufacturer's protocol. On the 14th day, red colonies composed of hemoglobinized erythroblasts were identified and scored.
# [5] = system: CD41+ megakaryocytes obtained from human MPD bone marrow; type: cell-based; conditions: ET patient bone marrow, TPO, 5 days
# Protocol: Two lead compounds were tested on samples from both MPD (myeloproliferative disease) patients and AMKL (acute megakaryocytic leukemia) patients. […] Referring to FIG. 8, bone marrow samples from patients with AMKL were cultured in DMSO (control) or DMF (at 5 μM) for 14 days. Colonies were stained with anti-CD41 antibody and visualized by microcopy (not shown). Total numbers of CD41+ megakaryocyte colonies are shown.
# (§5) Mononuclear cells from bone marrow of patients were obtained by informed consent from patients at Northwestern Feinberg School of Medicine. Mononuclear cells were separated from marrow with Ficoll (GE Healthcare life sciences, Piscataway, N.J.) and resuspended in IMDM (Iscove's Modified Dulbecco's Media) media without serum. The cells were stained with 0.4% trypan blue solution for 5 minutes and live cells were counted. Live cells were assayed in CFU-MK (“Colony forming units-megakaryocytes”) and BFU-E (“Burst forming unit-erythroid”) assays as well as in liquid culture.
# Marrow cells from ET patients were also cultured in RPMI with 10% FBS in the presence of recombinant human TPO (thrombopoeitin, 50 ng/ml). […] DNA content of both CD41+ cells and CD41-negative cells was analyzed by utilizing a BD LSRII flow cytometer (BD Biosciences San Jose, Calif.).
# [6] = system: CD41-cells (all other cell types); type: cell-based, human; conditions: ET patient bone marrow, 5 days
# Protocol: as §4, §5
# Liquid culture. Marrow cells from ET patients were also cultured in RPMI with 10% FBS in the presence of recombinant human TPO (thrombopoeitin, 50 ng/ml). […] After 5 days, the cells were collected and stained with APC (allophycocyanin) labeled anti-human CD41 antibody (BD Biosciences San Jose, Calif.). The cells were then stained overnight with 1 μg/mL 4′,6-diamidinio-2-phenylindole (DAPI). DNA content of both CD41+ cells and CD41-negative cells was analyzed by utilizing a BD LSRII flow cytometer (BD Biosciences San Jose, Calif.).
# [7] = system: 6133/MPL megakaryocytic leukemia cells; assay: 6133/MPL transplant model of AMKL, oral gavage treatment; type: in vivo, C57B1/6 mice; conditions: for lifespan: from day 3
# Protocol: FIG. 10 illustrates that DMF prevents AMKL in vivo. N=7 per group. […] transplant recipients were treated with two daily doses of vehicle, 33 mg/kg DMF, or 66 mg/kg DMF by oral gavage. Treatment with 33 or 66 mg/kg DMF led to statistically significant extensions in leukemia free survival (p=0.003 and 0.004 respectively).
# To determine whether polyploidization-inducing agents can serve as new therapies for AMKL, DMF was assessed in an animal model for AMKL. To this end, an animal model of AMKL was developed by transplanting 6133/MPL megakaryocytic leukemia cells into sub-lethally irradiated recipient C57B1/6 mice. The parental 6133 cell line, which is dependent upon TPO for survival, was derived from a leukemic mouse that expressed the AMKL t(1:22) fusion protein OTT-MAL by knock-in gene targeting (35). 6133 cells were then transduced with a MPLW515L expressing retrovirus, and stable TPO-independent clones were isolated. […] The disease was characterized by massive infiltration of CD41^+ cells in the bone marrow and spleen.
# After 3 days, the mice were treated with twice daily doses of DMF for 10 days. Seven mice were utilized per experimental condition. […] With 66 mg/kg nearly 50% of the mice remained disease free for at least 70 days. In contrast, all of mice fed only water (vehicle) died of leukemia by 20 days.
# C57BL/6 mice (purchased from the Jackson Laboratory, Bar Harbor, Me.) were sub-lethally irradiated with 600 rads. Mice were then anesthetized by an IP injection of mixture of Ketamine (100 mg/kg) and xylazine (5 mg/kg) 2 hours after irradiation. C57/B16 mice were intravenously injected with 1×10^6 6133/MPL cells, which were labeled with green fluorescent protein (GFP). Two different doses of DMF (33 mg/kg or 66 mg/kg) or water were administered to mice by oral gavage twice daily (b.i.d.) starting on the 3rd day after transplantation. For pre-treatment model, 6133/MPL cells were incubated with 5 μM DMF or DMSO for 24 hours. Live cells treated with DMF or […] were separated with Ficoll and transplanted into sub-lethally irradiated mice. Development of disease was assessed with presence of GFP-positive cells in the peripheral blood by FACS and by monitoring the health and body weight of the animals. Mice were sacrificed based on a protocol that includes assessment of morbidity by >20% loss of weight, severe anemia, scruffy appearance, and/or severe lethargy.
substance,measurement,setting,value
dimethylfasudil [DMF],positive in polyploidization screen,[1],positives
same,expression of the late megakaryocyte marker CD42,GIME cells,66.3%
same,polyploidization of primary human megakaryocytes,[2],potently induced polyploidization
same,effect on non-megakaryocytic (CD41-negative) cells,[3],no effect
same,formation of aberrant erythroid colonies,[4],potently blocked formation
same,polyploidization of bone marrow megakaryocytes,[5],potently induced polyploidization
same,effect on CD41-cells (all other cell types),[6],no effect
same,leukemia free survival p,[7]; 33 mg/kg by oral gavage vs vehicle,0.003
same,lifespan,[7]; 33 mg/kg twice daily oral gavage for 10 days,significant extensions in lifespan
same,leukemia free survival p,[7]; 66 mg/kg by oral gavage vs vehicle,0.004
same,mice remaining disease free for at least 70 days,[7]; 66 mg/kg twice daily oral gavage,~50%
same,lifespan,[7]; 66 mg/kg twice daily oral gavage for 10 days,significant extensions in lifespan
same,long-term survival of mice,[7]; feeding to mice,up to 50%
